Laboratory results as given in patent publication US10413593B2 (priority 2014, dated 2019).

Columns and labels:
[1] = Cumulative body weight change in DIO mice, daily s.c. dosing for nine days (Example 18, FIG. 1); assay type: in vivo, mice (strain C57Bl6/NTac); settings: 9 nmol/kg s.c. daily, day 9
Procedure: Mice were administered a vehicle control or a dose of a peptide daily for nine days. […] The peptide of SEQ ID NO: 9 was administered at doses of 9 and 25 nmol/kg. Cumulative body weight change (grams) was measured each day of the study except on day 3. Results are shown in FIG. 1 and are expressed as mean±SEM.

[2] = Second study in DIO mice: body weight change percent relative to vehicle (Example 19, FIG. 2); assay type: in vivo, mice (strain C57Bl6/NTac); settings: 3 nmol/kg daily, eight days
Procedure: In addition, the peptide of SEQ ID NO: 8 was administered at 15 nmol/kg, while the peptide of SEQ ID NOs: 10 and 11 were administered at 3 nmol/kg. Body weight was measured daily for eight days and body weight change is expressed as percent relative to vehicle (FIG. 2).

[3] = Cumulative food intake in DIO mice (Example 20, FIG. 3); settings: 3 nmol/kg, after 8 days of dosing
From the text: For the studies in Examples 18, 19, 20, and 21, diet induced obesity (DIO) mice (strain C57Bl6/NTac; 20 weeks on a high fat diet, about 47 g) were divided into groups of eight mice per group and the initial average body weight, food intake and basal glucose of each group were matched before peptide administration. Each group of mice was subcutaneously injected daily with a dose of Co-agonist Peptide or vehicle control for 7 to 10 days. The peptides tested in this study were Co-agonist Peptides 1, 2, 3, 4, 5, and 6 (SEQ ID NOs: 6, 7, 8, 9, 10, and 11, respectively) at the doses that varied from 3 nmol/kg to 25 nmol/kg. Body weight, food intake and basal glucose were measured periodically during treatment.

## CCCCCCCCCCCCCCCC(=O)N[C@@H](CCC(=O)N[C@@H](CCC(=O)NCCCC[C@H](NC(=O)[C@H](CC(=O)O)NC(=O)[C@H](CO)NC(=O)[C@@H](NC(=O)[C@H](Cc1ccccc1)NC(=O)[C@@H](NC(=O)CNC(=O)[C@H](CCC(N)=O)NC(=O)[C@@H](CO)NC(=O)[C@@H](N)Cc1c[nH]cn1)[C@@H](C)O)[C@@H](C)O)C(=O)N[C@@H](CO)C(=O)N[C@@H](CCCCN)C(=O)N[C@@H](Cc1ccc(O)cc1)C(=O)N[C@@H](CC(C)C)C(=O)N[C@@H](CC(=O)O)C(=O)N[C@@H](C)C(=O)N[C@@H](CCCNC(=N)N)C(=O)N[C@@H](C)C(=O)N[C@@H](C)C(=O)N[C@@H](CCC(N)=O)C(=O)N[C@@H](CC(=O)O)C(=O)N[C@@H](Cc1ccccc1)C(=O)N[C@H](C(=O)N[C@@H](CCC(N)=O)C(=O)N[C@@H](Cc1c[nH]c2ccccc12)C(=O)N[C@@H](CC(C)C)C(=O)N[C@@H](CC(C)C)C(=O)N[C@@H](CC(=O)O)C(=O)N[C@H](C(N)=O)[C@@H](C)O)C(C)C)C(=O)O)C(=O)O [SEQ ID NO: 10]
[1]
  body weight loss: approximately 13 grams
[2]
  weight loss, percent relative to vehicle: approximately 17%
[3]
  change in food intake vs vehicle: significant suppression of food intake
